The values below are quoted from earlier work in patent publication US20040121407A1, “Regulation of the growth hormone/IGF-1 axis” (ELIXIR PHARMACEUTICALS, INC., priority 2002, published 2004).

The target of data set [1] is human SST2 (Homo sapiens, UniProt P30874).
Data set [2] deals with GH secretion.
The test system of data set [3] is IGF-1 levels. The following applies: administered subcutaneously.

Chain of human SST2 (P30874 whole entry): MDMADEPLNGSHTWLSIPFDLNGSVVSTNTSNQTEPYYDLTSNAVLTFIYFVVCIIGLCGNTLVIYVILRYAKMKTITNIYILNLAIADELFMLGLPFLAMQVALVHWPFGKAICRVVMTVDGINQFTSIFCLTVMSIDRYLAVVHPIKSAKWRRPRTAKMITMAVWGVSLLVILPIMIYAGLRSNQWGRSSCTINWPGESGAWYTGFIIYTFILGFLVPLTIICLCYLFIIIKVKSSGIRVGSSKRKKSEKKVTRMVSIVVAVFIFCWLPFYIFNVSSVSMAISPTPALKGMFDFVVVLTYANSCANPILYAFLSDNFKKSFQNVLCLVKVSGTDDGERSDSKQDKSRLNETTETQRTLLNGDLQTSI

On to `CC(C)(C)OC(=O)[C@H](CCCCN)NC(=O)[C@@H](Cc1c[nH]c2ccccc12)NC(=O)N1CCC(n2c(=O)[nH]c3ccccc32)CC1` [L-054,522], for which the selectivity entry in data set [1] is given as “highly selective”.

As for “[N-acetyl-Tyr^1,D-Arg^2] GHRH^1-29NH2 [standard GHRH antagonist]”, the “human GH secretory response to exogenous GHRH” value in data set [2] (exogenous GHRH) is listed as “inhibits”. The “spontaneous GH secretion” value in data set [2] (in vivo) is reported as “lowers”. With “Pegvisomant: modified human GH in which nine amino acids have been replaced, with polyethylene glycol polymers; GH receptor antagonist”, the IGF-1 levels result in data set [3] is given as “dose dependent reduction”.
